Reference: patent US20250154144A1 (CHILDREN'S HOSPITAL MEDICAL CENTER, priority 2021, published 2025)
Where two headings read alike, the source gives them in different places.

Experiments:
[1] = tested on: THP1 cells; test: Combination drug screening, Cell Titer Glo, 10 × 10 matrix, THP1 cells; assay type: cell-based
[2] = tested on: MOLM14(D835Y) cells; assay type: cell-based; settings: for Excess HSA Score: 10 × 10
[3] = THP1 cells, 10 × 10, combination with (+)-BAY-1251152
[4] = THP1 cells, 10 × 10, combination with AMG-232
[5] = THP1 cells, 10 × 10, combination with AZD-5363
[6] = THP1 cells, 10 × 10, combination with Eprenetapopt/APR-246
[7] = THP1 cells, 10 × 10, combination with Ivosidenib
[8] = THP1 cells, 10 × 10, combination with Lenalidomide
[9] = THP1 cells, 10 × 10, combination with Palbociclib
[10] = THP1 cells, 10 × 10, combination with Prednisolone
[11] = THP1 cells, 10 × 10, combination with SNDX-5613
[12] = THP1 cells, 10 × 10, combination with TNO-155
[13] = THP1 cells, 10 × 10, combination with Trametinib
[14] = THP1 cells, 10 × 10, combination with Ulixertinib
[15] = THP1 cells, 10 × 10, combination with Venetoclax (ABT-199)
[16] = THP1 cells, combination with Venetoclax (ABT-199)
[17] = MOLM14(D835Y) cells, combination with (+)-BAY-1251152
[18] = MOLM14(D835Y) cells, combination with AMG-232
[19] = MOLM14(D835Y) cells, combination with AZD-5363
[20] = MOLM14(D835Y) cells, combination with Eprenetapopt/APR-246
[21] = MOLM14(D835Y) cells, combination with Ivosidenib
[22] = MOLM14(D835Y) cells, combination with Lenalidomide
[23] = MOLM14(D835Y) cells, combination with Palbociclib
[24] = MOLM14(D835Y) cells, combination with Prednisolone
[25] = MOLM14(D835Y) cells, combination with SNDX-5613
[26] = MOLM14(D835Y) cells, combination with TNO-155
[27] = MOLM14(D835Y) cells, combination with Trametinib
[28] = MOLM14(D835Y) cells, combination with Ulixertinib
[29] = MOLM14(D835Y) cells, combination with Venetoclax (ABT-199)
[30] = starting conc. 200 nM, with (+)-BAY-1251152 starting conc. 1000 nM
[31] = starting conc. 200 nM, with Azacitidine (5-Azacytidine) starting conc. 20000 nM
[32] = starting conc. 200 nM, with Palbociclib starting conc. 10000 nM
[33] = starting conc. 200 nM, with Prednisolone starting conc. 10000 nM
[34] = starting conc. 200 nM, with TNO-155 starting conc. 10000 nM
[35] = starting conc. 200 nM, with Venetoclax (ABT-199) starting conc. 2000 nM
[36] = starting conc. 200 nM, with Venetoclax (ABT-199) starting conc. 20000 nM
[37] = starting conc. 20000 nM, with (+)-BAY-1251152 starting conc. 1000 nM
[38] = starting conc. 20000 nM, with Azacitidine (5-Azacytidine) starting conc. 20000 nM
[39] = starting conc. 20000 nM, with Palbociclib starting conc. 10000 nM
[40] = starting conc. 20000 nM, with Prednisolone starting conc. 10000 nM
[41] = starting conc. 20000 nM, with TNO-155 starting conc. 10000 nM
[42] = starting conc. 20000 nM, with Venetoclax (ABT-199) starting conc. 2000 nM
[43] = starting conc. 20000 nM, with Venetoclax (ABT-199) starting conc. 20000 nM

CC(O)(c1cn2c(-c3ccnc(N[C@H]4CNCC[C@@H]4F)n3)cnc2cn1)C(F)(F)F (single isomer, unassigned) [Compound 72]
Excess HSA Score [1, 3]: −155.7 | Excess HSA Score [1, 4]: 364 | Excess HSA Score [1, 5]: −371.3 | Excess HSA Score [1, 6]: 594.2926 | Excess HSA Score [1, 7]: 175.5 | Excess HSA Score [1, 8]: 175.9 | Excess HSA Score [1, 9]: −319 | Excess HSA Score [1, 10]: 201.6 | Excess HSA Score [1, 11]: 342.4 | Excess HSA Score [1, 12]: 908.1 | Excess HSA Score [1, 13]: 354.3 | Excess HSA Score [1, 14]: 1146 | Excess HSA Score [1, 15]: −1130 | Comments ([1]; THP1 cells, combination with Ivosidenib): Antagonistic | Comments [1, 16]: Synergistic | Excess HSA Score [2, 17]: 179 | Excess HSA Score [2, 18]: −165.4 | Excess HSA Score [2, 19]: −687.9 | Excess HSA Score [2, 20]: −80.14 | Excess HSA Score [2, 21]: −168.3 | Excess HSA Score [2, 22]: 407.4 | Excess HSA Score [2, 23]: −390.1 | Excess HSA Score [2, 24]: 717.2 | Excess HSA Score [2, 25]: −77.23 | Excess HSA Score [2, 26]: −797.6 | Excess HSA Score [2, 27]: 218.5 | Excess HSA Score [2, 28]: 672.6 | Excess HSA Score [2, 29]: −1396 | Comments [2, 17]: Antagonistic | Comments [2, 29]: Synergistic

F[C@H]1CCNC[C@@H]1Nc1cncc(-c2cnc3cc(OC4CC4)ccn23)n1 [Compound 12, 6-(7-cyclopropoxyimidazo[1,2-a]pyridin-3-yl)-N-((3S,4S)-4-fluoropiperidin-3-yl)pyrazin-2-amine]
Excess HSA Score [1, 3]: −730.8 | Excess HSA Score [1, 4]: −0.2304 | Excess HSA Score [1, 5]: −798.3 | Excess HSA Score [1, 6]: 477.7 | Excess HSA Score [1, 7]: −53.98 | Excess HSA Score [1, 8]: −72.51 | Excess HSA Score [1, 9]: 575.5 | Excess HSA Score [1, 10]: −176.7 | Excess HSA Score [1, 11]: 75.74 | Excess HSA Score [1, 12]: −498.7 | Excess HSA Score [1, 13]: 300.014 | Excess HSA Score [1, 14]: −95.31 | Excess HSA Score [1, 15]: −1564 | Comments ([1]; THP1 cells, combination with AMG-232): Additive | Comments ([1]; THP1 cells, combination with SNDX-5613): Antagonistic | Comments [1, 16]: Synergistic | Excess HSA Score [2, 17]: −346.5 | Excess HSA Score [2, 18]: −464.9 | Excess HSA Score [2, 19]: −869.6 | Excess HSA Score [2, 20]: 381.9 | Excess HSA Score [2, 21]: −10.93 | Excess HSA Score [2, 22]: 176.4 | Excess HSA Score [2, 23]: −72.57 | Excess HSA Score [2, 24]: 908.8 | Excess HSA Score [2, 25]: −187.4 | Excess HSA Score [2, 26]: −906.9 | Excess HSA Score [2, 27]: −87.67 | Excess HSA Score [2, 28]: 256.8 | Excess HSA Score [2, 29]: −1232.2388 | Comments [2, 22]: Antagonistic | Comments [2, 29]: Synergistic

COc1cc2ncc(-c3cncc(N[C@H]4CNCC[C@@H]4F)n3)n2nc1C1CC1 [Compound 24, 6-(6-cyclopropyl-7-methoxyimidazo[1,2-b]pyridazin-3-yl)-N-((3S,4S)-4-fluoropiperidin-3-yl)pyrazin-2-amine]
Excess HSA Score [1, 3]: −308.4 | Excess HSA Score [1, 4]: 144.3 | Excess HSA Score [1, 5]: −379.5012 | Excess HSA Score [1, 6]: −87.03 | Excess HSA Score [1, 7]: 107 | Excess HSA Score [1, 8]: −94.52 | Excess HSA Score [1, 9]: −359.2 | Excess HSA Score [1, 10]: 35 | Excess HSA Score [1, 11]: 504 | Excess HSA Score [1, 12]: −66.32 | Excess HSA Score [1, 13]: −416.7 | Excess HSA Score [1, 14]: −298.8 | Excess HSA Score [1, 15]: −2203 | Comments ([1]; THP1 cells, combination with Prednisolone): Antagonistic | Comments [1, 16]: Synergistic | Comments [1, 30]: Synergistic at both | Excess HSA Score [1, 30]: −571 | Comments [1, 31]: Synergism is more | Excess HSA Score [1, 31]: −34.1 | Comments [1, 32]: Synergistic at both | Excess HSA Score [1, 32]: −217.9 | Comments [1, 33]: Antagonistic at both | Excess HSA Score [1, 33]: 212.2 | Comments [1, 34]: Synergistic | Excess HSA Score [1, 34]: −37.04 | Comments [1, 35]: Synergistic; Optimal | Excess HSA Score [1, 35]: −888.9 | Comments [1, 36]: Synergistic; Optimal | Excess HSA Score [1, 36]: −1905 | Comments [1, 37]: Synergistic at both | Excess HSA Score [1, 37]: −641.3 | Comments [1, 38]: Synergism is more | Excess HSA Score [1, 38]: −703.5 | Comments [1, 39]: Synergistic at both | Excess HSA Score [1, 39]: −318.6 | Comments [1, 40]: Antagonistic at both | Excess HSA Score [1, 40]: 291 | Comments [1, 41]: Antagonistic over | Excess HSA Score [1, 41]: 308.6 | Comments [1, 42]: Synergistic; Optimal | Excess HSA Score [1, 42]: −108.3 | Comments [1, 43]: Synergistic; Optimal | Excess HSA Score [1, 43]: −1677 | Excess HSA Score [2, 17]: −245.2 | Excess HSA Score [2, 18]: 468.3 | Excess HSA Score [2, 19]: −1011 | Excess HSA Score [2, 20]: 143 | Excess HSA Score [2, 21]: 282.2936 | Excess HSA Score [2, 22]: 491.2 | Excess HSA Score [2, 23]: −732.6 | Excess HSA Score [2, 24]: 169.8 | Excess HSA Score [2, 25]: −279.3 | Excess HSA Score [2, 26]: −1249 | Excess HSA Score [2, 27]: −336.8 | Excess HSA Score [2, 28]: −260.4 | Excess HSA Score [2, 29]: −1890 | Comments [2, 20]: Antagonistic | Comments [2, 29]: Synergistic | Excess HSA Score ([2]; MOLM14(D835Y), title compound starting conc. 200 nM + (+)-BAY-1251152 starting conc. 1000 nM): −369.2 | Excess HSA Score ([2]; MOLM14(D835Y), title compound starting conc. 200 nM + Azacitidine (5-Azacytidine) starting conc. 20000 nM): −594 | Excess HSA Score ([2]; MOLM14(D835Y), title compound starting conc. 200 nM + Palbociclib starting conc. 10000 nM): −490.9 | Excess HSA Score ([2]; MOLM14(D835Y), title compound starting conc. 200 nM + Prednisolone starting conc. 10000 nM): 12.1697 | Excess HSA Score ([2]; MOLM14(D835Y), title compound starting conc. 200 nM + TNO-155 starting conc. 10000 nM): −944.7 | Excess HSA Score ([2]; MOLM14(D835Y), title compound starting conc. 200 nM + Venetoclax (ABT-199) starting conc. 2000 nM): −764.8 | Excess HSA Score ([2]; MOLM14(D835Y), title compound starting conc. 200 nM + Venetoclax (ABT-199) starting conc. 20000 nM): −71.65 | Excess HSA Score ([2]; MOLM14(D835Y), title compound starting conc. 20000 nM + (+)-BAY-1251152 starting conc. 1000 nM): −47.77 | Excess HSA Score ([2]; MOLM14(D835Y), title compound starting conc. 20000 nM + Azacitidine (5-Azacytidine) starting conc. 20000 nM): −49.15 | Excess HSA Score ([2]; MOLM14(D835Y), title compound starting conc. 20000 nM + Palbociclib starting conc. 10000 nM): 182.1 | Excess HSA Score ([2]; MOLM14(D835Y), title compound starting conc. 20000 nM + Prednisolone starting conc. 10000 nM): 153.7 | Excess HSA Score ([2]; MOLM14(D835Y), title compound starting conc. 20000 nM + TNO-155 starting conc. 10000 nM): −94.76 | Excess HSA Score ([2]; MOLM14(D835Y), title compound starting conc. 20000 nM + Venetoclax (ABT-199) starting conc. 2000 nM): −501.6 | Excess HSA Score ([2]; MOLM14(D835Y), title compound starting conc. 20000 nM + Venetoclax (ABT-199) starting conc. 20000 nM): −122.6
